Data on five substances can be found in patent publication US9833497B2, “Human originated EGF domain proteins and use of the same” (CHENGDU SOURCEBIO LIMITED-LIABILITY COMPANY, priority 2013, dated 2017).

Common to all, as to format: cell-based
One assay relates to Proteus mirabilis. In words: MIC against Gram-negative bacteria: Proteus mirabilis. To be noted: 5×10^5 CFU/mL; for MIC P. mirabilis: two-fold serial dilution. The essentials: (§1)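 Bacteria grown in LB at 37° C to McFarland 0.5, resuspended and seeded at 5×10^5 CFU/mL in 96-well plates. Purified human EGF-domain proteins two-fold serially diluted, triplicate wells; cultured at 37° C, shaking 175 rpm. MIC = lowest protein concentration with no growth.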

For the next assay, the system named is Proteus vulgaris. As to the kind of experiment: MIC against Gram-negative bacteria: Proteus vulgaris. To be noted: 5×10^5 CFU/mL; for MIC P. vulgaris: two-fold serial dilution. The essentials: as §1
For a further assay, the system named is Enterobacter cloacae. As to the kind of experiment: MIC against Gram-negative bacteria: Enterobacter cloacae. To be noted: 5×10^5 CFU/mL; for MIC E. cloacae: two-fold serial dilution. The essentials:
as §1

The next assay has as its system Serratia marcescens. As to the kind of experiment: MIC against Gram-negative bacteria: Serratia marcescens. To be noted: 5×10^5 CFU/mL; for MIC S. marcescens: two-fold serial dilution. The essentials: as §1
In a further assay the test system is Citrobacter diversus. As to the kind of experiment: MIC against Gram-negative bacteria: Citrobacter diversus. Particulars: 5×10^5 CFU/mL; for MIC C. diversus: two-fold serial dilution. The procedure, abridged: as §1
A further assay deals with E. coli DH5α. As to the kind of experiment: Antibacterial activity: MIC and growth curve against E. coli DH5α in 96-well plate. Particulars: minimal inhibitory concentration against E. coli DH5α; 96-well plate, 5×10^5 CFU/mL, 37° C., judged after 8 h. The procedure, abridged: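 Log-phase DH5α (OD600 about 0.5, 37° C, 185 rpm in LB) was pelleted, resuspended in fresh LB and seeded at 5×10^5 CFU/mL with recombinant protein at 50, 25 and 12.5 μg/mL (two-fold series), in triplicate. Plates were shaken at 175 rpm, 37° C, and OD600 was read every 30 min. MIC was the lowest concentration with no growth.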

The subject of the next assay is Aeromonas hydrophila. As to the kind of experiment: MIC against Gram-negative bacteria: Aeromonas hydrophila. Particulars: 5×10^5 CFU/mL; for MIC A. hydrophila: two-fold serial dilution. The essentials:
as §1

The next assay deals with Pseudomonas aeruginosa. As to the kind of experiment: MIC against Gram-negative bacteria: Pseudomonas aeruginosa. Particulars: 5×10^5 CFU/mL; for MIC P. aeruginosa: two-fold serial dilution. The essentials:
as §1

In the next assay the test system is E. coli BL21. In words: MIC against Gram-negative bacteria: E. coli BL21. Particulars: 5×10^5 CFU/mL; for MIC E. coli BL21: two-fold serial dilution. The essentials:
as §1

A further assay deals with Klebsiella pneumonia. In words: MIC against Gram-negative bacteria: Klebsiella pneumonia. To be noted: 5×10^5 CFU/mL; for MIC K. pneumonia: two-fold serial dilution. The procedure, abridged:
as §1

The subject of another assay is Moraxella catarrhalis. As to the kind of experiment: MIC against Gram-negative bacteria: Moraxella catarrhalis. Particulars: 5×10^5 CFU/mL; for MIC M. catarrhalis: two-fold serial dilution. The procedure, abridged:
as §1

The mark [1] stands for this setting: Proteus mirabilis, 96-well plate, 37° C., 10 h.
[2] abbreviates: Proteus vulgaris, 96-well plate, 37° C., 10 h.
The mark [3] stands for this setting: Enterobacter cloacae, 96-well plate, 37° C., 10 h.
[4] abbreviates: Serratia marcescens, 96-well plate, 37° C., 10 h.
Setting [5] is: Citrobacter diversus, 96-well plate, 37° C., 10 h.
Setting [6] is: Aeromonas hydrophila, 96-well plate, 37° C., 10 h.
[7] abbreviates: Pseudomonas aeruginosa, 96-well plate, 37° C., 10 h.
[8] abbreviates: Klebsiella pneumonia, 96-well plate, 37° C., 10 h.
[9] abbreviates: Moraxella catarrhalis, 96-well plate, 37° C., 10 h.

Broadly, the MIC is the least concentration at which growth counts as inhibited. A lower MIC goes with inhibition by little substance. In the case of “PRT1166 (DTPEGVRYISSNVCGPHGKCKSQSGGKFTCDCNKGFTGTYCH; listed as Homo sapiens)”, the “MIC P. mirabilis” value against Proteus mirabilis (10 h cultivation at 37° C.) worked out at 12.5 µg/mL. The “MIC P. vulgaris” value against Proteus vulgaris (10 h cultivation at 37° C.) stood at 50 µg/mL. Also, in the assay on Enterobacter cloacae (10 h cultivation at 37° C.), the “MIC E. cloacae” value turned out to be 25 µg/mL. Moreover, in the assay on Serratia marcescens (10 h cultivation at 37° C.), the “MIC S. marcescens” value was 12.5 µg/mL. Moreover, in the assay on Citrobacter diversus (10 h cultivation at 37° C.), the “MIC C. diversus” value is 12.5 µg/mL. In the assay on E. coli DH5α, this substance gave an MIC of 50 µg/mL. Moreover, the “MIC A. hydrophila” value in the assay on Aeromonas hydrophila (10 h cultivation at 37° C.) was 25 µg/mL. Further, the “MIC P. aeruginosa” value against Pseudomonas aeruginosa (10 h cultivation at 37° C.) was found to be 25 µg/mL. The “MIC E. coli BL21” value in the assay with E. coli BL21 (10 h cultivation at 37° C.) is 12.5 µg/mL. In addition, the “MIC K. pneumonia” value with Klebsiella pneumonia (10 h cultivation at 37° C.) amounted to 50 µg/mL. Besides, in the assay on Moraxella catarrhalis (10 h cultivation at 37° C.), the “MIC M. catarrhalis” value worked out at 50 µg/mL.

Regarding “PRT83 (DDNVCLREPCENYMKCVSVLRFDSSAPFLASASTLFRPIQPIAGLRCRCPPGFTGDFCE; listed as Homo sapiens)”, the “MIC (μg/mL) P. mirabilis” value in the assay on Proteus mirabilis (setting [1]) worked out at 12.5 µg/mL. Further, the “MIC (μg/mL) P. vulgaris” value against Proteus vulgaris (setting [2]) was 12.5 µg/mL. In the assay on Enterobacter cloacae (setting [3]), the “MIC (μg/mL) E. cloacae” value was 25 µg/mL. Moreover, the “MIC (μg/mL) S. marcescens” value in the assay with Serratia marcescens (setting [4]) was 12.5 µg/mL. Further, the “MIC (μg/mL) C. diversus” value with Citrobacter diversus (setting [5]) came out at 25 µg/mL. This substance had an MIC in the assay with E. coli DH5α of 12.5 µg/mL. Also, the “MIC (μg/mL) A. hydrophila” value with Aeromonas hydrophila (setting [6]) was determined as 12.5 µg/mL. The “MIC (μg/mL) P. aeruginosa” value with Pseudomonas aeruginosa (setting [7]) came to 25 µg/mL. In the assay on E. coli BL21 (96-well plate, 37° C., 10 h), the “MIC (μg/mL) E. coli BL21” value worked out at 12.5 µg/mL. Besides, the “MIC (μg/mL) K. pneumonia” value in the assay with Klebsiella pneumonia (setting [8]) was found to be 12.5 µg/mL. For the same substance, the “MIC (μg/mL) M. catarrhalis” value in the assay on Moraxella catarrhalis (setting [9]) came to 12.5 µg/mL.

Consider “PRT748 (YTASCQPWSCSGHGECVEIINNYTCNCDVGYYGPQCQ; listed as Homo sapiens)”, for which, in the assay with Proteus mirabilis (P. mirabilis, 10 h cultivation at 37° C.), the “MIC (μg/mL) P. mirabilis” value is 50 µg/mL. In addition, in the assay with Proteus vulgaris (P. vulgaris, 10 h cultivation at 37° C.), the “MIC (μg/mL) P. vulgaris” value was found to be 12.5 µg/mL. In addition, in the assay with Enterobacter cloacae (E. cloacae, 10 h cultivation at 37° C.), the “MIC (μg/mL) E. cloacae” value came to 50 µg/mL. Besides, the “MIC (μg/mL) S. marcescens” value against Serratia marcescens (S. marcescens, 10 h cultivation at 37° C.) turned out to be 25 µg/mL. In the assay with Citrobacter diversus (C. diversus, 10 h cultivation at 37° C.), the “MIC (μg/mL) C. diversus” value is 50 µg/mL. The substance further gave a minimum inhibitory concentration (MIC) in the assay on E. coli DH5α of 50 µg/mL. Also, the “MIC (μg/mL) A. hydrophila” value against Aeromonas hydrophila (A. hydrophila, 10 h cultivation at 37° C.) came to 12.5 µg/mL. For the same substance, in the assay with Pseudomonas aeruginosa (P. aeruginosa, 10 h cultivation at 37° C.), the “MIC (μg/mL) P. aeruginosa” value turned out to be 12.5 µg/mL. Besides, the “MIC (μg/mL) E. coli BL21” value with E. coli BL21 (10 h cultivation at 37° C.) was found to be 25 µg/mL. Further, the “MIC (μg/mL) K. pneumonia” value with Klebsiella pneumonia (K. pneumonia, 10 h cultivation at 37° C.) was 25 µg/mL. Further, the “MIC (μg/mL) M. catarrhalis” value with Moraxella catarrhalis (M. catarrhalis, 10 h cultivation at 37° C.) came to 12.5 µg/mL.

Regarding “PRT1161 (DIDECASHPCKNGATCIDQPGNYFCQCVPPFKVVDGFSCL; listed as Homo sapiens)”, the “MIC P. mirabilis” value against Proteus mirabilis (10 h cultivation at 37° C.) is 12.5 µg/mL. In addition, the “MIC P. vulgaris” value against Proteus vulgaris (10 h cultivation at 37° C.) was determined as 25 µg/mL. The “MIC E. cloacae” value with Enterobacter cloacae (10 h cultivation at 37° C.) amounted to 25 µg/mL. For the same substance, in the assay with Serratia marcescens (10 h cultivation at 37° C.), the “MIC S. marcescens” value is 50 µg/mL. Further, in the assay on Citrobacter diversus (10 h cultivation at 37° C.), the “MIC C. diversus” value stood at 50 µg/mL. Further, the minimum inhibitory concentration (MIC) in the assay on E. coli DH5α amounted to 25 µg/mL. In addition, the “MIC A. hydrophila” value in the assay with Aeromonas hydrophila (10 h cultivation at 37° C.) turned out to be 25 µg/mL. Besides, the “MIC P. aeruginosa” value in the assay on Pseudomonas aeruginosa (10 h cultivation at 37° C.) amounted to 12.5 µg/mL. The “MIC E. coli BL21” value against E. coli BL21 (10 h cultivation at 37° C.) stood at 12.5 µg/mL. Also, the “MIC K. pneumonia” value in the assay on Klebsiella pneumonia (10 h cultivation at 37° C.) is 12.5 µg/mL. In addition, the “MIC M. catarrhalis” value in the assay with Moraxella catarrhalis (10 h cultivation at 37° C.) was 25 µg/mL.

Take “PRT119 (CAPCPNNGRPTLSGTECLCVCQSGTYGENCE; listed as Homo sapiens)”: the “MIC (μg/mL) P. mirabilis” value in the assay on Proteus mirabilis (setting [1]) was determined as 25 µg/mL. In addition, the “MIC (μg/mL) P. vulgaris” value against Proteus vulgaris (setting [2]) turned out to be 12.5 µg/mL. For the same substance, in the assay with Enterobacter cloacae (setting [3]), the “MIC (μg/mL) E. cloacae” value is 25 µg/mL. In addition, the “MIC (μg/mL) S. marcescens” value in the assay with Serratia marcescens (setting [4]) came to 12.5 µg/mL. Besides, the “MIC (μg/mL) C. diversus” value against Citrobacter diversus (setting [5]) was found to be 25 µg/mL. This substance also gave a minimum inhibitory concentration (MIC) in the assay with E. coli DH5α of 12.5 µg/mL. Moreover, the “MIC (μg/mL) A. hydrophila” value against Aeromonas hydrophila (setting [6]) worked out at 12.5 µg/mL. For the same substance, the “MIC (μg/mL) P. aeruginosa” value against Pseudomonas aeruginosa (setting [7]) turned out to be 12.5 µg/mL. Also, the “MIC (μg/mL) E. coli BL21” value in the assay on E. coli BL21 (96-well plate, 37° C., 10 h) was determined as 50 µg/mL. Also, in the assay with Klebsiella pneumonia (setting [8]), the “MIC (μg/mL) K. pneumonia” value stood at 50 µg/mL. Moreover, the “MIC (μg/mL) M. catarrhalis” value with Moraxella catarrhalis (setting [9]) turned out to be 50 µg/mL.
